Measurements taken from patent publication US20230303556A1, “PIPERAZINE SUBSTITUTED INDAZOLE COMPOUNDS AS INHIBITORS OF PARG” (IDEAYA BIOSCIENCES, INC., priority 2022, published 2023).
pEC50: −log10 of the molar value. ≈ marks a conversion by molar mass, not a printed value.

Target: hPARG (Homo sapiens (Human), UniProt Q86W56)
Experiment: Inhibition of PARG enzymatic assay (TR-FRET)
Assay type: biochemical
Settings: geometric mean; 1 hr compound/enzyme pre-incubation
Procedure: PARG enzyme was incubated with compound or vehicle (DMSO) and the biotinylated-PARylated PARP-1 substrate in a microtiter plate. After adding detection antibody and streptavidin-europium, and then incubating, the plate was read for fluorescence intensity. The low control (DMSO) with low fluorescence intensity represents no inhibition of enzymatic activity, while the high control (no enzyme) with high fluorescence intensity represents full inhibition of enzymatic activity.
• 0% inhibition: DMSO • 100% inhibition: No enzyme Enzyme reaction and Detection: • 1. Transfer 200 nL of 100× compound or DMSO to the appropriate wells of a 384 well white polystyrene microtitre plate (Corning Catalog #3574). • 2. Transfer 10 uL of 2× final concentration of enzyme in assay buffer or assay buffer alone to the appropriate wells. • 3. Centrifuge the plate at 1000 rpm for 30 seconds. • 4. Incubate the plate at room temperature for 1 hour. • 5. Transfer 10 uL of 2× substrate in assay buffer to all test wells. • 6. Incubate the plate at room temperature for 10 minutes • 7. Transfer 10 uL of 3× mixture of 42 nM detection antibody and 2.25 nM streptavidin-europium in 50 mM Tris-HCL pH 7.4 to all test wells. • 8. Incubate the plate at room temperature for 1 hour. • 9. Read the plate on a plate reader (Envision) • Excitation: 317 nm • Emission: 620 nm • Emission: 665 nm
EC50 values were calculated in Collaborative Drug Discovery vault (CDD). Curves were fitted by CDD as response (%) vs compound concentration (uM) using a 4-parameter inhibition model using Formula 1.
(§1) Fit=(A+((B−A)/(1+((C/x)^D))))

Chain of hPARG (Q86W56 whole entry): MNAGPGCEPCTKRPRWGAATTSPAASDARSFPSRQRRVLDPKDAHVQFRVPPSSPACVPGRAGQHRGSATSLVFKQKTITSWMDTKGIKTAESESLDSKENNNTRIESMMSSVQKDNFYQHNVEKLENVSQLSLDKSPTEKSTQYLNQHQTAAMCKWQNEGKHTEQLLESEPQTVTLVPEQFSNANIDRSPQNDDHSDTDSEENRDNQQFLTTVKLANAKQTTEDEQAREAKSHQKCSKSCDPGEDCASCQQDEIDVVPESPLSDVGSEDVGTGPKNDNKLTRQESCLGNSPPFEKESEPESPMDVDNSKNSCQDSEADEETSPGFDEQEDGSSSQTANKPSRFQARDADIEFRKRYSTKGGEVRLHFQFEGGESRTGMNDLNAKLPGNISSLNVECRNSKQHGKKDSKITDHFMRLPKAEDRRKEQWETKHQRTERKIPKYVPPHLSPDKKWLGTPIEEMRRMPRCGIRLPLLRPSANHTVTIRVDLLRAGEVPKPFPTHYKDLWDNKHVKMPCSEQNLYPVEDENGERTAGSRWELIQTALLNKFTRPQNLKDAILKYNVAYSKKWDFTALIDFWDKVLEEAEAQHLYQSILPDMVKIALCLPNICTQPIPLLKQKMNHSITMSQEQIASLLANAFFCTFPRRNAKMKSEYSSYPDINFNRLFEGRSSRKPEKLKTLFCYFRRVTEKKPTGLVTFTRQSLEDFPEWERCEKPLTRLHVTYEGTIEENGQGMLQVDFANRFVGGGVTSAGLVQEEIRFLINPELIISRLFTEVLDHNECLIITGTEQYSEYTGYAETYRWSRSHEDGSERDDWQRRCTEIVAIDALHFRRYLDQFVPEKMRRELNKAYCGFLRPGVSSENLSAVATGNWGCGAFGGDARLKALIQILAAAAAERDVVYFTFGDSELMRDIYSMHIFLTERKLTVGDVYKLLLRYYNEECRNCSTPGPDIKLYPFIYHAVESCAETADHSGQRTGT

Row | Structure (SMILES) | pEC50
1 | CN(C)C(=O)N1CCN(c2cc(S(=O)(=O)NC3(C#N)CC3)cc3c2cnn3-c2nnc(C(F)F)s2)CC1 | 8.18
2 | C[C@@H]1CN(c2cc(S(=O)(=O)NC3(C#N)CC3)cc3c2cnn3-c2nnc(C(F)F)s2)CCN1C(=O)N(C)C | 8.00
3 | CC(C)C(=O)N1CCN(c2cc(S(=O)(=O)NC3(C#N)CC3)cc3c2cnn3-c2nnc(C(F)F)s2)C[C@H]1C | 7.41
4 | CC(C)C(=O)N1CCN(c2cc(S(=O)(=O)NC3(C#N)CC3)cc3c2cnn3-c2nnc(C(F)F)s2)CC1 | 7.72

The next lines start with the values.

Row | pEC50 | Structure (SMILES)
5 | 8.14 | CN(C)C(=O)N1CCN(c2cc(S(=O)(=O)NC3(C)CC3)cc3c2cnn3-c2nnc(C(F)F)s2)CC1
6 | 7.10 | CC(C)C(=O)N1[C@H](C)CN(c2cc(S(=O)(=O)NC3(C#N)CC3)cc3c2cnn3-c2nnc(C(F)F)s2)C[C@@H]1C
7 | 8.72 | C[C@H]1CN(c2cc(S(=O)(=O)NC3(C)CC3)cc3c2cnn3-c2nnc(C(F)F)s2)C[C@H](C)N1 [drawing 29]

Test system: SNU601-NucLight Red cells
Experiment: Cellular viability assay, SNU601-NucLight Red
Assay type: cell-based
Settings: SNU-601, 168 h, 7 days incubation, geometric mean
Procedure: (§2) The ability of the compounds disclosed herein to inhibit PARG was determined in the following two cell lines: RMUGS-NucLight Red and SNU601-NucLight Red. RMUGS-NucLight Red and SNU601-NucLight Red cells were generated by stably transducing parental cells (RMUGS-JCRB Cell Bank, Cat no: IF050320; SNU601-Korean Cell Line Bank, Cat no:00601) with Incucyte® NucLight Red lentivirus (Sartorius, Cat no: 4476). Described below are the protocols followed for both the cell lines.
(§3) The cells were plated at 200 cells/well in a 384-well black plate with clear flat bottom. After 24 hours, the plates were imaged using the Incucyte® S3 Live-Cell Analysis system and the number of live cells in each well (Day 0) was counted. Test compounds were then added by Tecan digital dispenser to generate a 9 point dose curve with a 3 fold dilution and 10 uM top concentration. All treatments were done in triplicates. After 7 days of incubation, the plates were imaged using the Incucyte® S3 system and the number of live cells per well (Day 7) was counted. For every well on the plate, the live cell counts on day 7 was normalized to the cell counts from day 0 (Day 7/Day 0). Average values of DMSO treated wells in a plate were calculated. All the data points were normalized to that of the average DMSO value. The % of control for each sample was compared to DMSO treated control samples. EC50 values were calculated in Collaborative Drug Discovery vault (CDD). Curves were fitted by CDD as % of control vs. log [compound concentration] using a 4-parameter inhibition model (Levenberg-Marquardt algorithm):
as §1
When clear bi-phasic behavior was observed on the resulting data the EC50 was calculated in GraphPad Prism Software for the major fraction of the response using the following formula:
Section1=Span*Frac/(1+10^((Log EC50_1−X)*nH1))
Section2=Span*(1−Frac)/(1+10^((Log EC50_2−X)*nH2))

Row | Structure (SMILES) | pEC50
8 | CN(C)C(=O)N1CCN(c2cc(S(=O)(=O)NC3(C#N)CC3)cc3c2cnn3-c2nnc(C(F)F)s2)CC1 | 7.09
9 | C[C@@H]1CN(c2cc(S(=O)(=O)NC3(C#N)CC3)cc3c2cnn3-c2nnc(C(F)F)s2)CCN1C(=O)N(C)C | 7.08
10 | CC(C)C(=O)N1CCN(c2cc(S(=O)(=O)NC3(C#N)CC3)cc3c2cnn3-c2nnc(C(F)F)s2)C[C@H]1C | 6.84
11 | CC(C)C(=O)N1CCN(c2cc(S(=O)(=O)NC3(C#N)CC3)cc3c2cnn3-c2nnc(C(F)F)s2)CC1 | 6.98

Other lines, results leading:

Row | pEC50 | Structure (SMILES)
12 | 7.44 | CN(C)C(=O)N1CCN(c2cc(S(=O)(=O)NC3(C)CC3)cc3c2cnn3-c2nnc(C(F)F)s2)CC1
13 | 6.75 | CC(C)C(=O)N1[C@H](C)CN(c2cc(S(=O)(=O)NC3(C#N)CC3)cc3c2cnn3-c2nnc(C(F)F)s2)C[C@@H]1C
14 | 7.96 | C[C@H]1CN(c2cc(S(=O)(=O)NC3(C)CC3)cc3c2cnn3-c2nnc(C(F)F)s2)C[C@H](C)N1 [drawing 29]

Test system: RMUGS-NucLight Red cells
Experiment: Cellular viability assay, RMUGS-NucLight Red
Assay type: cell-based
Settings: 168 h, 7 days incubation, geometric mean
Procedure: as §2
as §3, with “1000” for “200”, “96-well” for “384-well”, “duplicates.” for “triplicates.”, “[…]” for “EC50”
as §1

Row | Structure (SMILES) | pEC50
15 | CN(C)C(=O)N1CCN(c2cc(S(=O)(=O)NC3(C#N)CC3)cc3c2cnn3-c2nnc(C(F)F)s2)CC1 | 7.31
16 | CN(C)C(=O)N1CCN(c2cc(S(=O)(=O)NC3(C)CC3)cc3c2cnn3-c2nnc(C(F)F)s2)CC1 | 8.08
17 | CC(C)C(=O)N1[C@H](C)CN(c2cc(S(=O)(=O)NC3(C#N)CC3)cc3c2cnn3-c2nnc(C(F)F)s2)C[C@@H]1C | 7.00
18 | C[C@@H]1CN(c2cc(S(=O)(=O)NC3(C#N)CC3)cc3c2cnn3-c2nnc(C(F)F)s2)CCN1C(=O)N(C)C | 7.22
19 | CC(C)C(=O)N1CCN(c2cc(S(=O)(=O)NC3(C#N)CC3)cc3c2cnn3-c2nnc(C(F)F)s2)C[C@H]1C | 7.12
20 | C[C@H]1CN(c2cc(S(=O)(=O)NC3(C)CC3)cc3c2cnn3-c2nnc(C(F)F)s2)C[C@H](C)N1 [drawing 29] | 8.38
21 | CC(C)C(=O)N1CCN(c2cc(S(=O)(=O)NC3(C#N)CC3)cc3c2cnn3-c2nnc(C(F)F)s2)CC1 | 7.19

Test system: not listed separately
Experiment: Kinetic solubility in PBS pH 2.0 and pH 7.4
Assay type: physicochemical
Settings: aqueous buffer, kinetic from dmso stock, PBS pH 2.0, 25° C., * n <3 runs, read-out: Kinetic Solubility pH 2.0
Procedure: • Control compound diclofenac sodium (LOT #BCBW9128) was purchased from Sigma Chemical Co. • 1.5 mL glass flat bottom vials (BioTech Solutions) • Molded PTFE/SIL plugs (BioTech Solutions) • PTFE encapsulated stir stick (V&P Scientific) • MultiScreenHTS HV (0.45 μm) 96 well plate (Millipore, MSHVN4510 or MSHVN4550) • Eppendorf Thermomixer Comfort • Vacuum Manifold ORVMN96. • PBS pH 2.0 and pH 7.4 was prepared in our laboratory
• diclofenac sodium (LOT #BCBW9128), Sigma Chemical Co.
• 1. Preparation of stock solutions. The stock solutions of test compounds and control compound diclofenac sodium were prepared in DMSO at the concentration of 30 mM and 10 mM, respectively. • 2. Procedure for solubility determination. 10 μL of stock solutions (30 mM) of test compounds was placed in order into their proper 96-well rack, 20 μL of DMSO and 970 μL of PBS pH 2.0 or pH 7.4 was added into each vial of the cap-less Solubility Sample plate; 30 μL of stock solution (10 mM) of control compound was placed in order into its proper 96-well rack, 970 μL of PBS pH 2.0 or pH 7.4 was added into each vial of the cap-less Solubility Sample plate. The assay was performed in duplicate. One stir stick was added to each vial and seal using a molded PTFE/Silicone plug. Then the Solubility Sample plate was transferred to the Eppendorf Thermomixer Comfort plate shaker and shaken at 25° C. at 1100 RPM for 24 hours. After completion of the 24 hours, plugs were removed and the stir sticks were removed using a big magnet, the samples from the Solubility Sample plate were transferred into the filter plate. Using the Vacuum Manifold, all the samples were filtered. Aliquot of 10 μL was taken from the filtrate followed by addition of 990 μL of a mixture of H2O and acetonitrile (1:1 in v/v). 200 μL of diluent was transferred to a new 96-well plate for LC-MS/MS analysis. The dilution factor was changed according to the solubility values and the LC-MS signal response. • 3. Preparation of 3 μM standards (STD). From the 10 mM or 30 mM DMSO STD plate, 15 μL or 5 μL was transferred into the remaining empty plate, and then 485 μL or 495 μL of DMSO was added to that plate to have a STD concentration of 300 μM. From the 300 μM DMSO STD plate, 5 μL was transferred into the remaining empty plate, and then 495 μL of a mixture of H2O and acetonitrile (1:1 in v/v) was added to that plate to have a final STD concentration of 3 μM. 200 μL of diluent was transferred to a new 96-well plate for LC-MS/MS analysis. The concentrations of the standard samples were changed according to the LC-MS signal response. • 4. Procedure for sample analysis. The plate was placed into the well plate autosampler. The samples were evaluated by LC-MS/MS analysis.

Row | Structure (SMILES) | solubility kinetic at 24 h [µM]
22 | CN(C)C(=O)N1CCN(c2cc(S(=O)(=O)NC3(C#N)CC3)cc3c2cnn3-c2nnc(C(F)F)s2)CC1 | 1 (≈ 0.552 µg/mL)
23 | C[C@@H]1CN(c2cc(S(=O)(=O)NC3(C#N)CC3)cc3c2cnn3-c2nnc(C(F)F)s2)CCN1C(=O)N(C)C | 7.2 (≈ 4.07 µg/mL)
24 | CC(C)C(=O)N1CCN(c2cc(S(=O)(=O)NC3(C#N)CC3)cc3c2cnn3-c2nnc(C(F)F)s2)C[C@H]1C | 2.1 (≈ 1.19 µg/mL)
25 | CC(C)C(=O)N1CCN(c2cc(S(=O)(=O)NC3(C#N)CC3)cc3c2cnn3-c2nnc(C(F)F)s2)CC1 | 1.1 (≈ 0.606 µg/mL)

Further lines, results first:

Row | solubility kinetic at 24 h [µM] | Structure (SMILES)
26 | 0.2 (≈ 0.108 µg/mL) | CN(C)C(=O)N1CCN(c2cc(S(=O)(=O)NC3(C)CC3)cc3c2cnn3-c2nnc(C(F)F)s2)CC1
27 | < 0.03 | CC(C)C(=O)N1[C@H](C)CN(c2cc(S(=O)(=O)NC3(C#N)CC3)cc3c2cnn3-c2nnc(C(F)F)s2)C[C@@H]1C
28 | 282 (≈ 140 µg/mL) | C[C@H]1CN(c2cc(S(=O)(=O)NC3(C)CC3)cc3c2cnn3-c2nnc(C(F)F)s2)C[C@H](C)N1 [drawing 29]

Same assay, conditions: aqueous buffer, kinetic from dmso stock, PBS pH 7.4, 25° C., * n <3 runs, read-out: Kinetic Solubility pH 7.4

Row | Structure (SMILES) | solubility kinetic at 24 h [µM]
29 | CN(C)C(=O)N1CCN(c2cc(S(=O)(=O)NC3(C#N)CC3)cc3c2cnn3-c2nnc(C(F)F)s2)CC1 | 1.4 (≈ 0.772 µg/mL)
30 | C[C@@H]1CN(c2cc(S(=O)(=O)NC3(C#N)CC3)cc3c2cnn3-c2nnc(C(F)F)s2)CCN1C(=O)N(C)C | 14 (≈ 7.92 µg/mL)
31 | CC(C)C(=O)N1CCN(c2cc(S(=O)(=O)NC3(C#N)CC3)cc3c2cnn3-c2nnc(C(F)F)s2)C[C@H]1C | 5.6 (≈ 3.16 µg/mL)
32 | CC(C)C(=O)N1CCN(c2cc(S(=O)(=O)NC3(C#N)CC3)cc3c2cnn3-c2nnc(C(F)F)s2)CC1 | 2.1 (≈ 1.16 µg/mL)

The next lines start with the values.

Row | solubility kinetic at 24 h [µM] | Structure (SMILES)
33 | 0.3 (≈ 0.162 µg/mL) | CN(C)C(=O)N1CCN(c2cc(S(=O)(=O)NC3(C)CC3)cc3c2cnn3-c2nnc(C(F)F)s2)CC1
34 | < 0.03 | CC(C)C(=O)N1[C@H](C)CN(c2cc(S(=O)(=O)NC3(C#N)CC3)cc3c2cnn3-c2nnc(C(F)F)s2)C[C@@H]1C
35 | 42 (≈ 20.9 µg/mL) | C[C@H]1CN(c2cc(S(=O)(=O)NC3(C)CC3)cc3c2cnn3-c2nnc(C(F)F)s2)C[C@H](C)N1 [drawing 29]
